In ChEMBL document CHEMBL1144213, “Synthesis and antiproliferative activity of unnatural enantiomers of 7-epi-goniofufurone and crassalactone C” (Bioorg Med Chem Lett, 2008) one finds IC50 data, which are given here for 6 molecules.

SMILES strings stand for the structures.

The test system of experiment [1] is Jurkat. The experiment in a line: Cytotoxicity against human Jurkat cells after 72 hrs by MTT assay. It is filed as functional, cell-based. Background: Tetrazolium dyes change colour on reduction, which living cells bring about.
Experiment [2] deals with HL-60. The experiment in a line: Cytotoxicity against human HL-60 cells after 72 hrs by MTT assay. Particulars: HL-60, 72 h. It is filed as functional, cell-based.
The subject of experiment [3] is HeLa. The experiment in a line: Cytotoxicity against human HeLa cells after 72 hrs by MTT assay. The experiment is classed as functional, cell-based.
The subject of experiment [4] is MRC5. Kind of experiment: Cytotoxicity against human MRC5 cells after 72 hrs by MTT assay. It is filed as cell-based. Particulars: MRC5, 72 h.
In experiment [5] the test system is Raji. Kind of experiment: Cytotoxicity against human Raji cells after 72 hrs by MTT assay. It is filed as functional, cell-based.

Usually IC50 stands for the concentration needed to halve the response being measured. A high value points to a need for much substance. `COc1cccc2c1C(=O)c1c(O)c3c(c(O)c1C2=O)C[C@@](O)(C(=O)CO)C[C@@H]3O[C@H]1C[C@H](N)[C@H](O)[C@H](C)O1` [DOXORUBICIN]: the IC50 in experiment [1] was determined as 0.03 µM; in experiment [2] it was 0.92 µM.
Take `O=C1C[C@@H]2O[C@@H]([C@H](O)c3ccccc3)[C@@H](O)[C@@H]2O1`: the IC50 was 0.05 µM in experiment [1]; 13.9 µM in experiment [2]; 4.38 µM in experiment [3]; more than 100 µM in experiment [4]; more than 100 µM in experiment [5].
For `O=C1C[C@@H]2O[C@@H]3[C@@H](O[C@H]3c3ccccc3)[C@@H]2O1`, the IC50 was 28.4 µM in experiment [1]; 0.025 µM in experiment [2]; 0.97 µM in experiment [3]; more than 100 µM in experiment [4]; 0.45 µM in experiment [5].
In the case of `O=C1C[C@H]2O[C@H]([C@@H](O)c3ccccc3)[C@H](O)[C@H]2O1`, the IC50 in experiment [1] is 18.6 µM; in experiment [2] it was 22 µM; in experiment [3], 0.89 µM; in experiment [4], more than 100 µM; in experiment [5] it was 1.25 µM.
`O=C(/C=C/c1ccccc1)O[C@@H](c1ccccc1)[C@@H]1O[C@H]2CC(=O)O[C@H]2[C@@H]1O` [CRASSALACTONE C (ENANTIOMERIC MIX)]: the IC50 in experiment [1] is 15.7 µM; in experiment [2], 1.87 µM; in experiment [3] it was 1.18 µM; in experiment [4] it was more than 100 µM; in experiment [5] it was 0.57 µM.
The matching figures for `O=C(/C=C/c1ccccc1)O[C@H](c1ccccc1)[C@H]1O[C@@H]2CC(=O)O[C@@H]2[C@H]1O` [(+)-CRASSALACTONE C]: 25.4 µM, more than 100 µM, 11.2 µM, more than 100 µM and 15.5 µM.
